Source: EP0942906B1, “COMPOUNDS USEFUL FOR INHIBITION OF FARNESYL PROTEIN TRANSFERASE” (SCHERING CORPORATION, priority 1996, dated 1998)
Like-named read-outs stand apart in the source and are kept apart here.

Assays:
Conditions in all cases: range stated for the listed group of compounds
[1] = target: farnesyl protein transferase (Homo sapiens, UniProt P49354+P49356); test: FPT IC50, inhibition of farnesyl protein transferase, in vitro enzyme assay (procedure of WO 95/10516); assay type: biochemical
Chain of farnesyl protein transferase (P49356 whole entry, one chain of several): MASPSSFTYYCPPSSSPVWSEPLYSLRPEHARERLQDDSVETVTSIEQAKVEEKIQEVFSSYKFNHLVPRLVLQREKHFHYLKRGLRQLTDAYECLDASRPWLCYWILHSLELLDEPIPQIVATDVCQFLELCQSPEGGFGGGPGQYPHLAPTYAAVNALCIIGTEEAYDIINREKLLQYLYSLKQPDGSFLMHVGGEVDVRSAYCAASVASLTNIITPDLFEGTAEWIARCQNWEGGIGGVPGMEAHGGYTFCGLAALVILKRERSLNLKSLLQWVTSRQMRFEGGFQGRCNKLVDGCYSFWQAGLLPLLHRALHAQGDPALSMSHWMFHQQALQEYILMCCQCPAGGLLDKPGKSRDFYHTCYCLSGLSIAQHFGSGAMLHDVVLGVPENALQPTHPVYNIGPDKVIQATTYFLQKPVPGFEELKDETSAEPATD
Method: (§1) FPT IC50 (inhibition of farnesyl protein transferase, in vitro enzyme assay) and COS Cell IC50 (Cell-Based Assay) were determined following the assay procedures described in WO 95/10516, published April 20, 1995. GGPT IC50 (inhibition of geranylgeranyl protein transferase, in vitro enzyme assay), Cell Mat Assay, and anti-tumor activity (in vivo anti-tumor studies) could be determined by the assay procedures described in WO 95/10516.

[2] = test system: COS Cell; test: COS Cell IC50 (Cell-Based Assay, procedure of WO 95/10516)
Method: as §1

[3] = test system: Human tumor cells; test: Soft Agar Assay (anchorage-independent growth, colony count after MTT staining); assay type: cell-based
Method: Anchorage-independent growth is a characteristic of tumorigenic cell lines. Human tumor cells are suspended in growth medium containing 0.3% agarose and an indicated concentration of a farnesyl transferase inhibitor. The solution is overlayed onto growth medium solidified with 0.6% agarose containing the same concentration of farnesyl transferase inhibitor as the top layer. After the top layer is solidified, plates are incubated for 10-16 days at 37°C under 5% CO2 to allow colony outgrowth. After incubation, the colonies are stained by overlaying the agar with a solution of MTT (3-[4,5-dimethylthiazol-2-yl]-2.5-diphenyltetrazolium bromide, Thiazolyl blue) (1 mg/mL in PBS). Colonies can be counted and the IC50's can be determined.

[4] = H-ras, read-out: FPT IC50 (H-ras)
[5] = ras form not stated, read-out: FPT IC50

SMILES | IC50 [1, 4] | IC50 ([2]; read-out: Cos Cell IC50) | IC50 [3] | IC50 [1, 5] | IC50 ([2]; read-out: Cos Cell) | IC50 ([1]; k-ras, read-out: FPT IC50 (k-ras))
COC(=O)CCC(=O)N1CCC(CC(=O)N2CCC(C3c4ncc(Br)cc4CCc4cc(Cl)cc(Br)c43)CC2)CC1 (stereo not shown) [Compound 15.2] | 2 to 31.7 nM | 10 to 700 nM | ≥ 19.5 nM | – | – | –
CCOC(=O)C[C@@H](CC(=O)N1CCC(CC(=O)N2CCC([C@H]3c4ncc(Br)cc4CCc4cc(Cl)cc(Br)c43)CC2)CC1)OC(C)=O [Compound 16.0-B] | – | – | ≥ 19.5 nM | 0.7 to 18 nM | ≥ 9 nM | –
O=C(O)CCC(=O)N1CCC(CC(=O)N2CCC([C@H]3c4ncc(Br)cc4CCc4cc(Cl)cc(Br)c43)CC2)CC1 [Compound 18.0-B] | 2 to 31.7 nM | – | ≥ 19.5 nM | 0.7 to 18 nM | ≥ 9 nM | 14.5 to 71.2 nM
O=C(O)CCCC(=O)N1CCC(CC(=O)N2CCC([C@H]3c4ncc(Br)cc4CCc4cc(Cl)cc(Br)c43)CC2)CC1 [Compound 19.0-B] | – | – | ≥ 19.5 nM | 0.7 to 18 nM | ≥ 9 nM | –
O=C(CON=Cc1cc[n+]([O-])cc1)N1CCC(CC(=O)N2CCC(C3c4ncc(Br)cc4CCc4cc(Cl)cc(Br)c43)CC2)CC1 (stereo not shown) [Compound 22.0-B] | – | – | ≥ 19.5 nM | 0.7 to 18 nM | ≥ 9 nM | –
CC(C)=NOCCC(=O)N1CCC(CC(=O)N2CCC([C@H]3c4ncc(Br)cc4CCc4cc(Cl)cc(Br)c43)CC2)CC1 [Compound 23.0-B] | 2 to 31.7 nM | – | ≥ 19.5 nM | 0.7 to 18 nM | ≥ 9 nM | –
CC(C)(C)OC(=O)N1C[C@H](O)C[C@H]1C(=O)N1CCC(CC(=O)N2CCC([C@H]3c4ncc(Br)cc4CCc4cc(Cl)cc(Br)c43)CC2)CC1 [Compound 24.0-B] | – | – | ≥ 19.5 nM | 0.7 to 18 nM | ≥ 9 nM | –
O=C(CC1CCN(C(=O)Cn2cnc([N+](=O)[O-])c2)CC1)N1CCC([C@H]2c3ncc(Br)cc3CCc3cc(Cl)cc(Br)c32)CC1 [Compound 26.0-B] | – | – | ≥ 19.5 nM | 0.7 to 18 nM | ≥ 9 nM | –
O=C(Cc1c[nH]cn1)N1CCC(CC(=O)N2CCC([C@H]3c4ncc(Br)cc4CCc4cc(Cl)cc(Br)c43)CC2)CC1 [Compound 30.0-B] | – | – | ≥ 19.5 nM | 0.7 to 18 nM | ≥ 9 nM | –
CN(C)C(=O)C(=O)N1CCC(CC(=O)N2CCC([C@H]3c4ncc(Br)cc4CCc4cc(Cl)cc(Br)c43)CC2)CC1 [Compound 33.0-B] | – | – | ≥ 19.5 nM | 0.7 to 18 nM | ≥ 9 nM | –
O=C(CC1CCN(C(=O)Cn2cccc2)CC1)N1CCC([C@H]2c3ncc(Br)cc3CCc3cc(Cl)cc(Br)c32)CC1 [Compound 34.0-B] | – | – | ≥ 19.5 nM | 0.7 to 18 nM | ≥ 9 nM | –
COC(=O)c1cccn1CC(=O)N1CCC(CC(=O)N2CCC([C@H]3c4ncc(Br)cc4CCc4cc(Cl)cc(Br)c43)CC2)CC1 [Compound 35.0-B] | – | – | ≥ 19.5 nM | 0.7 to 18 nM | ≥ 9 nM | –
O=C(CO)N1CCC(CC(=O)N2CCC([C@H]3c4ncc(Br)cc4CCc4cc(Cl)cc(Br)c43)CC2)CC1 [Compound 37.0-B] | – | – | ≥ 19.5 nM | 0.7 to 18 nM | ≥ 9 nM | –
N#CCC(=O)N1CCC(CC(=O)N2CCC([C@H]3c4ncc(Br)cc4CCc4cc(Cl)cc(Br)c43)CC2)CC1 [Compound 44.0-B] | – | – | ≥ 19.5 nM | 0.7 to 18 nM | ≥ 9 nM | –
CONC(=O)C(=O)N1CCC(CC(=O)N2CCC([C@H]3c4ncc(Br)cc4CCc4cc(Cl)cc(Br)c43)CC2)CC1 [Compound 49.0-B] | – | – | ≥ 19.5 nM | 0.7 to 18 nM | ≥ 9 nM | –
NC(=O)CC(=O)N1CCC(CC(=O)N2CCC([C@H]3c4ncc(Br)cc4CCc4cc(Cl)cc(Br)c43)CC2)CC1 [Compound 50.0-B] | – | – | ≥ 19.5 nM | 0.7 to 18 nM | ≥ 9 nM | –
O=C(O)c1cccn1CC(=O)N1CCC(CC(=O)N2CCC([C@H]3c4ncc(Br)cc4CCc4cc(Cl)cc(Br)c43)CC2)CC1 [Compound 52.0-B] | – | – | ≥ 19.5 nM | 0.7 to 18 nM | ≥ 9 nM | –
CCOC(=O)c1c(C)ncn1CC(=O)N1CCC(CC(=O)N2CCC([C@H]3c4ncc(Br)cc4CCc4cc(Cl)cc(Br)c43)CC2)CC1 [Compound 53.0-B] | – | – | ≥ 19.5 nM | 0.7 to 18 nM | ≥ 9 nM | –
CCOC(=O)c1ncn(CC(=O)N2CCC(CC(=O)N3CCC([C@H]4c5ncc(Br)cc5CCc5cc(Cl)cc(Br)c54)CC3)CC2)c1C [Compound 54.0-B] | – | – | ≥ 19.5 nM | 0.7 to 18 nM | ≥ 9 nM | –
O=C(OCc1ccccc1)c1cccn1CC(=O)N1CCC(CC(=O)N2CCC([C@H]3c4ncc(Br)cc4CCc4cc(Cl)cc(Br)c43)CC2)CC1 [Compound 55.0-B] | – | – | ≥ 19.5 nM | 0.7 to 18 nM | ≥ 9 nM | –

SMILES | IC50 [1, 4] | IC50 ([2]; read-out: Cos Cell IC50) | IC50 [3] | IC50 [1, 5] | IC50 ([2]; read-out: Cos Cell) | IC50 ([1]; k-ras, read-out: FPT IC50 (k-ras))
COC(=O)Cc1cn(CC(=O)N2CCC(CC(=O)N3CCC([C@H]4c5ncc(Br)cc5CCc5cc(Cl)cc(Br)c54)CC3)CC2)cn1 [Compound 56.0-B] | – | – | ≥ 19.5 nM | 0.7 to 18 nM | ≥ 9 nM | –
O=C(CC1CCN(C(=O)Cn2cncn2)CC1)N1CCC([C@H]2c3ncc(Br)cc3CCc3cc(Cl)cc(Br)c32)CC1 [Compound 57.0-B] | – | – | ≥ 19.5 nM | 0.7 to 18 nM | ≥ 9 nM | –
COC(=O)CCCCCC(=O)N1CCC(CC(=O)N2CCC([C@H]3c4ncc(Br)cc4CCc4cc(Cl)cc(Br)c43)CC2)CC1 [Compound 68.0-B] | – | – | ≥ 19.5 nM | 0.7 to 18 nM | ≥ 9 nM | –
O=C(O)CCCCCC(=O)N1CCC(CC(=O)N2CCC([C@H]3c4ncc(Br)cc4CCc4cc(Cl)cc(Br)c43)CC2)CC1 [Compound 70.0-B] | – | – | ≥ 19.5 nM | 0.7 to 18 nM | ≥ 9 nM | –
CC(=O)C(=O)N1CCC(CC(=O)N2CCC([C@H]3c4ncc(Br)cc4CCc4cc(Cl)cc(Br)c43)CC2)CC1 [Compound 72.0-B] | – | – | ≥ 19.5 nM | 0.7 to 18 nM | ≥ 9 nM | –
O=C(O)C[C@H](O)CC(=O)N1CCC(CC(=O)N2CCC([C@H]3c4ncc(Br)cc4CCc4cc(Cl)cc(Br)c43)CC2)CC1 [Compound 74.0-B] | – | – | ≥ 19.5 nM | 0.7 to 18 nM | ≥ 9 nM | –
O=C(CC1CCN(C(=O)CN2CCCCC2)CC1)N1CCC([C@H]2c3ncc(Br)cc3CCc3cc(Cl)cc(Br)c32)CC1 [Compound 75.0-B] | – | – | ≥ 19.5 nM | 0.7 to 18 nM | ≥ 9 nM | –
O=C1NC(=O)C(CC(=O)N2CCC(CC(=O)N3CCC([C@H]4c5ncc(Br)cc5CCc5cc(Cl)cc(Br)c54)CC3)CC2)N1 (stereo partly shown) [Compound 77.0-B] | – | – | ≥ 19.5 nM | 0.7 to 18 nM | ≥ 9 nM | –
O=C(CC1CCN(C(=O)CN2C(=O)CSC2=O)CC1)N1CCC([C@H]2c3ncc(Br)cc3CCc3cc(Cl)cc(Br)c32)CC1 [Compound 79.0-B] | 2 to 31.7 nM | – | ≥ 19.5 nM | 0.7 to 18 nM | ≥ 9 nM | –
O=C(C(=O)N1CCC(CC(=O)N2CCC([C@H]3c4ncc(Br)cc4CCc4cc(Cl)cc(Br)c43)CC2)CC1)c1cccs1 [Compound 81.0-B] | – | – | ≥ 19.5 nM | 0.7 to 18 nM | ≥ 9 nM | –
O=C(Cc1cccs1)N1CCC(CC(=O)N2CCC([C@H]3c4ncc(Br)cc4CCc4cc(Cl)cc(Br)c43)CC2)CC1 [Compound 82.0-B] | – | – | ≥ 19.5 nM | 0.7 to 18 nM | ≥ 9 nM | –
O=C(CC1CCOCC1)N1CCC(CC(=O)N2CCC([C@H]3c4ncc(Br)cc4CCc4cc(Cl)cc(Br)c43)CC2)CC1 [Compound 85.0-B] | – | – | ≥ 19.5 nM | 0.7 to 18 nM | ≥ 9 nM | –
NCCC(=O)N1CCC(CC(=O)N2CCC([C@H]3c4ncc(Br)cc4CCc4cc(Cl)cc(Br)c43)CC2)CC1 [Compound 88.0-B] | – | – | ≥ 19.5 nM | 0.7 to 18 nM | ≥ 9 nM | –
CC(C)(C)OC(=O)NCCCC(=O)N1CCC(CC(=O)N2CCC([C@H]3c4ncc(Br)cc4CCc4cc(Cl)cc(Br)c43)CC2)CC1 [Compound 89.0-B] | – | – | ≥ 19.5 nM | 0.7 to 18 nM | ≥ 9 nM | –
O=C(CON=Cc1ccccc1O)N1CCC(CC(=O)N2CCC(C3c4ncc(Br)cc4CCc4cc(Cl)cc(Br)c43)CC2)CC1 (stereo not shown) [Compound 95.0-B] | – | – | ≥ 19.5 nM | 0.7 to 18 nM | ≥ 9 nM | –
COC(=O)CCCCC(=O)N1CCC(CC(=O)N2CCC([C@H]3c4ncc(Br)cc4CCc4cc(Cl)cc(Br)c43)CC2)CC1 [Compound 101.0-B] | – | – | ≥ 19.5 nM | 0.7 to 18 nM | ≥ 9 nM | –
COC(=O)C(=O)N1CCC(CC(=O)N2CCC([C@H]3c4ncc(Br)cc4CCc4cc(Cl)cc(Br)c43)CC2)CC1 [Compound 104.0-B] | 2 to 31.7 nM | – | ≥ 19.5 nM | – | ≥ 9 nM | –
O=C(O)CCCCC(=O)N1CCC(CC(=O)N2CCC([C@H]3c4ncc(Br)cc4CCc4cc(Cl)cc(Br)c43)CC2)CC1 [Compound 107.0-B] | – | – | ≥ 19.5 nM | 0.7 to 18 nM | ≥ 9 nM | –
O=C(CC1CCN(C(=O)CC2COCCO2)CC1)N1CCC([C@H]2c3ncc(Br)cc3CCc3cc(Cl)cc(Br)c32)CC1 (stereo partly shown) [Compound 114.2-B] | – | – | ≥ 19.5 nM | 0.7 to 18 nM | ≥ 9 nM | –
O=C(CC1CCN(C(=O)CC2CCCO2)CC1)N1CCC([C@H]2c3ncc(Br)cc3CCc3cc(Cl)cc(Br)c32)CC1 (stereo partly shown) [Compound 114.4-B] | – | – | ≥ 19.5 nM | 0.7 to 18 nM | ≥ 9 nM | –
